# Experimental data reported in USRE38828E1, “Parevins and tachytegrins” (IntraBiotics Pharmaceuticals, Inc., priority 1995, dated 2005).
# Bridge positions count the residues as written; N and C are the ends. Square brackets hold non-standard residues; d marks the D form. Ends that are not written are not given here. Peptide text beside a SMILES is read from it. Sar = CNCC(=O)O
# Key:
# [1] = test system: E. coli; assay type: cell-based
# Procedure: (§1) The radial diffusion assay in agarose gels is conducted using radiodiffusion and gel overlay techniques as described by Lehrer, R. I. et al. J Immunol Meth (1991) 137:167-173. […] In some cases, the underlay was supplemented with 100 mM NaCl. The units of activity in the radial diffusion assay were measured as described; 10 units correspond to a 1 mm diameter clear zone around the sample well. FIGS. 1-6 show the results against five test organisms in units described as above. A synthetic protegrin (PG-1) containing two cystines (sPG-1) or PG-1 in linear form were used as controls.
# (§2) Several illustrative tachytegrins were synthesized as described in Example 1 and tested for activity against Staphylococcus aureus (MRSA), Pseudomonas (Psa), VREF, Candida and E. coli as described in Example 2. The results shown in Table 1 as minimal inhibitory concentration (MIC) in ug/ml were obtained with the C-terminal amidated forms except for the last two which were tested as the free acids, as indicated by *. In all peptides in Table 1, X is MeGly.
# [2] = test system: Staphylococcus aureus (MRSA); assay type: cell-based
# Procedure: as §1, §2
# [3] = test system: Pseudomonas (Psa); assay: minimal inhibitory concentration, Pseudomonas; assay type: cell-based; conditions: C-terminal amidated forms except * (free acids)
# Procedure: as §1, §2
# [4] = test system: VREF; assay type: cell-based
# Procedure: as §1, §2
# [5] = test system: T. vaginallis strain C1 (ATCC 30001); assay: Trichomonas vaginalis motility, lysis and growth; assay type: cell-based, Trichomonas vaginallis
# Procedure: For Trichomonas vaginallis, strain C1 (ATCC 30001) is grown as described by Gorrell, T. E. et al., Carlsberg Res Comm (1984) 49:259-268. […] Soon thereafter, the organisms become permeable to trypan blue, and, over the ensuing 15-30 minutes, lyse. As expected, such organisms fail to grow when introduced into their customary growth medium (Diamond's medium).
# [6] = test system: E. coli ML-35p; assay: radial diffusion assay in agarose gels, E. coli; assay type: cell-based
# Procedure: Media for testing antimicrobial activity are designed to mimic certain specific conditions. The standard buffer medium, medium A, uses an underlay agar with the following composition: 0.3 mg/ml of trypticase soy broth powder, 1% w/v agarose and 10 mM sodium phosphate buffer (final pH 7.4). This will be designated either “medium A” or “standard in vitro conditions” herein.
# A second medium contains 100 mM NaCl in order to mimic the salt levels in blood and tissue fluids. This will be designated “medium B” or “salt medium” herein.
# as §1
# [7] = FIG. 4, E. coli ML-35p, in the absence of salt
# [8] = FIG. 4, E. coli ML-35p, in the presence of 100 mM NaCl
# [9] = FIG. 1, E. coli, in the absence of salt
# [10] = FIG. 1, E. coli, in the presence of 100 mM NaCl
molecule,measurement,setting,value
CC(C)C[C@@H]1NC(=O)[C@@H](NC(=O)[C@H](Cc2ccccc2)NC(=O)CNC(=O)[C@@H](N)CCCNC(=N)N)CSSC[C@@H](C(=O)N[C@H](C(=O)N[C@@H](CCCNC(=N)N)C(N)=O)C(C)C)NC(=O)[C@H](Cc2ccccc2)NC(=O)[C@H](CCCNC(=N)N)NC(=O)[C@H](C(C)C)NC(=O)[C@H]([C@@H](C)O)NC(=O)[C@H](Cc2ccccc2)NC(=O)[C@H](CCCNC(=N)N)NC(=O)[C@@H]2CCCN2C(=O)[C@H](C(C)C)NC(=O)[C@H]([C@@H](C)O)NC(=O)[C@H](Cc2ccc(O)cc2)NC(=O)[C@H](CCCNC(=N)N)NC1=O [RGFCLRYTVPRFTVRFCVR] (H-RGFCLRYTVPRFTVRFCVR-NH2; disulfide 4-17; N-terminus assumed),minimal inhibitory concentration (MIC) E. Coli,[1],0.99 µg/mL
same,minimal inhibitory concentration (MIC) MRSA,[2],1.88 µg/mL
same,minimal inhibitory concentration (MIC) Paa,[3],0.57 µg/mL
CC(C)C[C@@H]1NC(=O)[C@@H](NC(=O)[C@H](Cc2ccccc2)NC(=O)CNC(=O)[C@@H](N)CCCNC(=N)N)CSSC[C@@H](C(=O)N[C@H](C(=O)N[C@@H](CCCNC(=N)N)C(=O)O)C(C)C)NC(=O)[C@H](Cc2ccccc2)NC(=O)[C@H](CCCNC(=N)N)NC(=O)[C@H](C(C)C)NC(=O)CN(C)C(=O)[C@H](Cc2ccccc2)NC(=O)[C@H](CCCNC(=N)N)NC(=O)CNC(=O)[C@H](C(C)C)NC(=O)CN(C)C(=O)[C@H](Cc2ccc(O)cc2)NC(=O)[C@H](CCCNC(=N)N)NC1=O [RGFCLRYXVGRFXVRFCVR] (H-RGFCLRY[Sar]VGRF[Sar]VRFCVR-OH; disulfide 4-17 (inferred); N-terminus assumed),minimal inhibitory concentration (MIC) MRSA,[2],>32 µg/mL
same,minimal inhibitory concentration (MIC) VREF,[4],12 µg/mL
CC(C)C[C@@H]1NC(=O)[C@@H](NC(=O)[C@H](Cc2ccccc2)NC(=O)CNC(=O)[C@@H](N)CCCNC(=N)N)CSSC[C@@H](C(=O)N[C@@H](CCCNC(=N)N)C(N)=O)NC(=O)[C@H](C(C)C)NC(=O)[C@H](Cc2ccccc2)NC(=O)[C@H](CCCNC(=N)N)NC(=O)[C@H](C(C)C)NC(=O)CN(C)C(=O)[C@H](Cc2ccccc2)NC(=O)[C@H](CCCNC(=N)N)NC(=O)CNC(=O)[C@H](C(C)C)NC(=O)CN(C)C(=O)[C@H](Cc2ccc(O)cc2)NC(=O)[C@H](CCCNC(=N)N)NC1=O [RGFCLRYXVGRFXVRFVCR] (H-RGFCLRY[Sar]VGRF[Sar]VRFVCR-NH2; disulfide 4-18 (inferred); N-terminus assumed),minimal inhibitory concentration (MIC) MRSA,[2],>54 µg/mL
CC(C)C[C@@H]1NC(=O)[C@@H](NC(=O)CNC(=O)CNC(=O)[C@@H](N)CCCNC(=N)N)CSSC[C@@H](C(=O)N[C@@H](CCCNC(=N)N)C(N)=O)NC(=O)[C@H](C(C)C)NC(=O)[C@H](CCCNC(=N)N)NC(=O)[C@H](C(C)C)NC(=O)[C@H](C)NC(=O)[C@H](Cc2ccccc2)NC(=O)[C@H](CCCNC(=N)N)NC(=O)CN(C)C(=O)[C@H](CCCNC(=N)N)NC(=O)[C@H](C)NC(=O)[C@H](Cc2ccc(O)cc2)NC(=O)[C@H](CCCNC(=N)N)NC1=O [RGGCLRYARXRFAVRVCR] (H-RGGCLRYAR[Sar]RFAVRVCR-NH2; disulfide 4-17 (inferred); N-terminus assumed),minimal inhibitory concentration (MIC) MRSA,[2],>32 µg/mL
same,minimal inhibitory concentration (MIC) Paa,[3],5.7 µg/mL
CC(C)C[C@@H]1NC(=O)[C@@H](NC(=O)CNC(=O)CNC(=O)[C@@H](N)CCCNC(=N)N)CSSC[C@@H](C(=O)N[C@@H](CCCNC(=N)N)C(=O)O)NC(=O)[C@H](C(C)C)NC(=O)[C@H](CCCNC(=N)N)NC(=O)[C@H](C(C)C)NC(=O)[C@H](C)NC(=O)[C@H](Cc2ccccc2)NC(=O)[C@H](CCCNC(=N)N)NC(=O)CNC(=O)[C@H](C(C)C)NC(=O)[C@H](C)NC(=O)[C@H](Cc2ccc(O)cc2)NC(=O)[C@H](CCCNC(=N)N)NC1=O [RGGCLRYAVGRFAVRVCR] (H-RGGCLRYAVGRFAVRVCR-OH; disulfide 4-17; N-terminus assumed),minimal inhibitory concentration (MIC) MRSA,[2],>32 µg/mL
same,minimal inhibitory concentration (MIC) VREF,[4],5.3 µg/mL
CC(C)C[C@@H]1NC(=O)[C@@H](NC(=O)CNC(=O)CNC(=O)[C@@H](N)CCCNC(=N)N)CSSC[C@@H](C(=O)N[C@@H](CCCNC(=N)N)C(N)=O)NC(=O)[C@H](C(C)C)NC(=O)[C@H](CCCNC(=N)N)NC(=O)[C@H](C(C)C)NC(=O)[C@H](C)NC(=O)[C@H](Cc2ccccc2)NC(=O)[C@H](CCCNC(=N)N)NC(=O)[C@@H]2CCCN2C(=O)[C@H](C(C)C)NC(=O)[C@H](C)NC(=O)[C@H](Cc2ccc(O)cc2)NC(=O)[C@H](CCCNC(=N)N)NC1=O [RGGCLRYAVPRFAVRVCR] (H-RGGCLRYAVPRFAVRVCR-NH2; disulfide 4-17; N-terminus assumed),minimal inhibitory concentration (MIC) MRSA,[2],>128 µg/mL
same,minimal inhibitory concentration (MIC) Paa,[3],0.05 µg/mL
"PG-1: protegrin PG-1 (RGGRLCYCRRRFCVCVGR; ends and bridges not checked; also: two disulfide bonds, pairing not given here; UniProt P32194 131-148, looked up)",motility of T. vaginallis,"[5]; 50 ug/ml, RPMI+1% heat-activated fetal calf serum, within a few minutes after exposure",becomes stationary
same,lysis of T. vaginallis,"[5]; 50 ug/ml, over the ensuing 15-30 minutes",lyse
same,growth of exposed organisms in Diamond's medium,[5]; after exposure to 50 ug/ml,fail to grow
"PG-3: protegrin PG-3 (RGGGLCYCRRRFCVCVGR; ends and bridges not checked; cysteine pairing not given here; UniProt P32196 131-148, looked up)",motility of T. vaginallis,[5]; 25 ug/ml,retain their motility
"cis-parevin: parevin with disulfide bridges C5-C8 and C13-C16 (RGGRCLYCRRRFCIVCG; disulfide 13-16, 5-8)","antibacterial activity, radial diffusion (effectiveness)",[6]; [7],comparably effective in the absence of salt and both were more effective than sPG-1
same,"antibacterial activity, radial diffusion (effectiveness)",[6]; [8],maintained their effectiveness and were comparable
"tachytegrin: tachytegrin with disulfide bridges C4-C17 and C8-C13 (RGGCRLYCRRRFCVVGCR; disulfide 8-13, 4-17)","antibacterial activity, radial diffusion (effectiveness)",[6]; [9],slightly more effective than sPG-1 although slightly less effective than linear PG-1
same,"antibacterial activity, radial diffusion (effectiveness)",[6]; [10],comparably effective
"trans-parevin: parevin with disulfide bridges C5-C16 and C8-C13 (RGGRCLYCRRRFCVVCGR; disulfide 8-13, 5-16)","antibacterial activity, radial diffusion (effectiveness)",[6]; [9],slightly more effective than sPG-1 although slightly less effective than linear PG-1
same,"antibacterial activity, radial diffusion (effectiveness)",[6]; [10],comparably effective
same,"antibacterial activity, radial diffusion (effectiveness)",[6]; [7],comparably effective in the absence of salt and both were more effective than sPG-1
same,"antibacterial activity, radial diffusion (effectiveness)",[6]; [8],maintained their effectiveness and were comparable
